Each structure is given as a SMILES string. Where a name gives a salt, the structure may show the parent alone.

The experiment concerns T1, primary mouse cortical neurons.
T1 construct: primary cortical neurons, DIV 10
Put plainly: cells. Details: Protection from NMDA-induced (30 uM, 10 min) neuronal death; Hoechst nuclear morphology by automated microscopy. Particulars: Cortical neurone, 20 h, read-out: % inhibition, inhibition of NMDA-induced cell death (protection score), 30 min pre-treatment. In short, it runs like this:
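On DIV 10, primary mouse cortical neurons were given compound at 10 μM for 30 min at 37 °C, then 30 μM NMDA for 10 min, washed, and kept 20 h with compound. Dead cells were scored by nuclear morphology, and % protection was derived from survival relative to vehicle + NMDA and untreated controls.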

With `CCC(C)(C)C(=O)O[C@H]1C[C@@H](C)C=C2C=C[C@H](C)[C@H](CC[C@@H]3C[C@@H](O)CC(=O)O3)[C@H]21` [Simvastatin (Zocor)], the inhibition (as a rule, the change of the read-out against control, counted positive when it falls) at 10 µM stood at 2.21%.
The result for `CCC(=O)OCC(=O)[C@@]1(OC(=O)CC)[C@@H](C)C[C@H]2[C@@H]3CCC4=CC(=O)C=C[C@]4(C)[C@@]3(F)[C@@H](O)C[C@@]21C` [Betamethasone dipropionate] reads 6.47%.
For `NC12CC3CC(CC(C3)C1)C2` [Amantadine hydrochloride (Symmetrel)], the inhibition at 10 µM is 1.41%.
Take `S=c1[nH]cnc2nc[nH]c12` [Mercaptopurine]: the inhibition at 10 µM was -8.52%.
In the case of `CCCCCOC(=O)Nc1nc(=O)n([C@@H]2O[C@H](C)[C@@H](O)[C@H]2O)cc1F` [Capecitabine (Xeloda)], the inhibition at 10 µM amounted to 3.74%.
On to `CCC[C@H](N[C@@H](C)C(=O)N1[C@H](C(=O)O)C[C@@H]2CCCC[C@@H]21)C(=O)OCC` [Perindopril Erbumine (Aceon)], for which the inhibition at 10 µM is -1.31%.
For the compound `Cc1cc(NS(=O)(=O)c2ccc(N)cc2)no1` [Sulfamethoxazole], the inhibition at 10 µM is -1.59%.
The result for `CN1CCCC(n2nc(Cc3ccc(Cl)cc3)c3ccccc3c2=O)CC1` (stereo not drawn) [Azelastine hydrochloride (Astelin)] reads -2.32%; that for `O=c1[nH]c2ccccc2n1CCCN1CCC(n2c(=O)[nH]c3cc(Cl)ccc32)CC1` [Domperidone (Motilium)], -9.12%; that for `O=C(OC1C[C@H]2CC[C@@H](C1)[N+]21CCCC1)C(O)(c1ccccc1)c1ccccc1` (stereo partly drawn) [Trospium chloride (Sanctura)], 7.49%.
With `O=P(O)(O)C(O)(Cn1ccnc1)P(=O)(O)O` [Zoledronic Acid (Zoledronate)], the inhibition at 10 µM is -0.211%.
In the case of `CC(=O)C1=C(O)C=C2Oc3c(C(C)=O)c(O)c(C)c(O)c3[C@@]2(C)C1=O` [(+)-Usniacin (D-Usnic acid)], the inhibition at 10 µM was -4.28%.
In the case of `COc1ccc(-c2oc3c(CC=C(C)C)c(O[C@@H]4O[C@H](CO)[C@@H](O)[C@H](O)[C@H]4O)cc(O)c3c(=O)c2O[C@@H]2O[C@@H](C)[C@H](O)[C@@H](O)[C@H]2O)cc1` [Icariin], the inhibition at 10 µM is -2.42%.
The result for `O=C1c2c(O)cccc2[C@H]([C@@H]2O[C@H](CO)[C@@H](O)[C@H](O)[C@H]2O)c2cc(CO)cc(O)c21` [Aloin (Barbaloin)] reads 0.91%; that for `C[C@H]1C[C@@H]2[C@H]([C@@H](O)C[C@@]3(C)[C@H]2CC[C@]3(O)C(=O)CO)[C@@]2(C)C=CC(=O)C=C12` [Methylprednisolone], 7.52%; that for `COc1cc2nc(N(C)CCCNC(=O)C3CCCO3)nc(N)c2cc1OC` (stereo not drawn) [Alfuzosin hydrochloride (Uroxatral)], -0.34%.
In the case of `O=c1c(O)c(-c2ccc(O)c(O)c2)oc2cc(O)ccc12` [Fisetin (Fustel)], the inhibition at 10 µM is -2.5%.
As for `CCOC(=O)c1ncn2c1CN(C)C(=O)c1cc(F)ccc1-2` [Flumazenil], the inhibition at 10 µM was -13.8%.
On to `C=C1C[C@@]2(O)O[C@@]3(C[C@H]2C(C)C)[C@@H](C)CC[C@@H]13` [Curcumol], for which the inhibition at 10 µM came to 7.41%.
For `COc1ccc(/C=C/C(=O)Nc2ccccc2C(=O)O)cc1OC` [Tranilast (SB 252218)] the value was -11.4%; for `Cn1c(CNc2ccc(C(=N)N)cc2)nc2cc(C(=O)N(CCC(=O)O)c3ccccn3)ccc21` [BIBR 953 (Dabigatran etexilate, Pradaxa)], -1.4%; for `CCOC(=O)C1=C(C)NC(C)=C(C(=O)OC)C1c1cccc(Cl)c1Cl` (stereo not drawn) [Felodipine (Plendil)], -1.75%.
Turning to `Cc1cnc(C(=O)O)c[n+]1[O-]` [Acipimox], the inhibition at 10 µM was -0.00389%.
For `CS(=O)(=O)OCCCCOS(C)(=O)=O` [Busulfan (Myleran, Busulfex)] the value was 15.7%; for `N=C(N)NC(=N)N1CCOCC1` [Moroxydine], 0.926%; for `Cn1c(CCCC(=O)O)nc2cc(N(CCCl)CCCl)ccc21` [Bendamustine HCL], 9.61%.
Regarding `O=c1cc(-c2ccc(O)cc2)oc2cc(O)cc(O)c12` [Apigenin], the inhibition at 10 µM is -0.752%.
The result for `CCCc1nn(C)c2c(=O)[nH]c(-c3cc(S(=O)(=O)N4CCN(C)CC4)ccc3OCC)nc12` [Sildenafil citrate] reads 4.4%; that for `CC(C)Cn1cnc2c(N)nc3ccccc3c21` [Imiquimod], -8.7%.
For `CCCC[N+]1(C)[C@@H]2CC(OC(=O)[C@H](CO)c3ccccc3)C[C@H]1[C@@H]1O[C@@H]12` (stereo partly drawn) [Butylscopolamine bromide (Scopolamine butylbromide)], the inhibition at 10 µM worked out at 5%.
As for `C=C[C@](C)(O)CC[C@@H]1[C@@]2(C)CCCC(C)(C)[C@@H]2CC[C@@]1(C)O` [Sclareol], the inhibition at 10 µM came out at 23.8%.
For `Clc1ccc(COC(Cn2ccnc2)c2ccc(Cl)cc2Cl)cc1` (stereo not drawn) [Econazole nitrate (Spectazole)] the value was -2.25%.
For `C[C@@H]1CC[C@@]2(OC1)O[C@H]1C[C@H]3[C@@H]4CC=C5C[C@@H](O)CC[C@]5(C)[C@H]4CC[C@]3(C)[C@H]1[C@@H]2C` [Diosgenin] the value was -1.47%; for `O=C(CCc1ccc(O)cc1)c1c(O)cc(O)cc1O` [Phloretin (Dihydronaringenin)], -1.62%.
Consider `CO[C@H]1C[C@@H]2CC[C@@H](C)[C@@](O)(O2)C(=O)C(=O)N2CCCC[C@H]2C(=O)O[C@H]([C@H](C)C[C@@H]2CC[C@@H](OC(=O)C(C)(CO)CO)[C@H](OC)C2)CC(=O)[C@H](C)/C=C(\C)[C@@H](O)[C@@H](OC)C(=O)[C@H](C)C[C@H](C)/C=C/C=C/C=C/1C` [Temsirolimus (Torisel)], for which the inhibition at 10 µM amounted to 1.56%.
For `O=c1[nH]c(=O)n([C@H]2C[C@H](O)[C@@H](CO)O2)cc1F` [Floxuridine], the inhibition at 10 µM was -8.07%.
For `CCc1cccc2c3c([nH]c12)C(CC)(CC(=O)O)OCC3` (stereo not drawn) [Etodolac (Lodine)] the value was 9.68%; for `O=C1CCC(N2C(=O)c3ccccc3C2=O)C(=O)N1` (stereo not drawn) [Thalidomide], -3.3%; for `OC[C@@H](O)[C@@H](O)[C@H](O)[C@@H](O)CO` [Sorbitol (Glucitol)], 3.24%.
Consider `C[C@H](CCC(=O)O)[C@H]1CC[C@H]2[C@@H]3[C@@H](O)C[C@@H]4C[C@H](O)CC[C@]4(C)[C@H]3CC[C@]12C` [Ursodiol (Actigal Urso)], for which the inhibition at 10 µM was determined as 35.3%.
On to `Cc1c(OCC(F)(F)F)ccnc1C[S+]([O-])c1nc2ccccc2[nH]1` (stereo not drawn) [Lansoprazole], for which the inhibition at 10 µM is -7.28%.
In the case of `CCC1=C[C@@H]2CN(C1)Cc1c([nH]c3ccccc13)[C@@](C(=O)OC)(c1cc3c(cc1OC)N(C)[C@H]1[C@@](O)(C(=O)OC)[C@H](OC(C)=O)[C@]4(CC)C=CCN5CC[C@]31[C@@H]54)C2` [Vinorelbine (Navelbine)], the inhibition at 10 µM was -1.98%.
For `O=C(/C=C/c1ccc(O)cc1)c1ccc(O)cc1O` [Isoliquiritigenin] the value was 5.56%; for `OC[C@H]1O[C@@H](Oc2cc(O)cc(C=Cc3ccc(O)cc3)c2)[C@H](O)[C@@H](O)[C@@H]1O` [Polydatin (Piceid)], 1.2%; for `NS(=O)(=O)c1cc2c(cc1Cl)NCNS2(=O)=O` [Hydrochlorothiazide], 8.57%.
For `CC(C)C(=O)Oc1ccc(CO)cc1[C@H](CCN(C(C)C)C(C)C)c1ccccc1` [Fesoterodine fumarate (Toviaz)], the inhibition at 10 µM was -0.933%.
In the case of `C[C@@H](O)[C@H]1C(=O)N2C(C(=O)O)=C(S[C@@H]3CN[C@H](CNS(N)(=O)=O)C3)[C@H](C)[C@H]12` [Doripenem Hydrate], the inhibition at 10 µM was -0.0213%.
As to `CC(=O)Oc1cc2c(s1)CCN(C(C(=O)C1CC1)c1ccccc1F)C2` (stereo not drawn) [Prasugrel (Effient)], the inhibition at 10 µM is -7.75%.
With `C=C[C@H]1CN2CC[C@H]1C[C@H]2[C@H](O)c1ccnc2ccc(OC)cc12` [Quinine hydrochloride dihydrate], the inhibition at 10 µM was -0.947%.
For `COC(=O)N[C@H](C(=O)N[C@@H](Cc1ccccc1)[C@@H](O)CN(Cc1ccc(-c2ccccn2)cc1)NC(=O)[C@@H](NC(=O)OC)C(C)(C)C)C(C)(C)C` [Atazanavir sulfate], the inhibition at 10 µM was found to be 2.12%.
On to `O=C1C[C@@H](c2ccc(O)cc2)Oc2cc(O)cc(O)c21` [Naringenin], for which the inhibition at 10 µM is -3.44%.
The result for `COC(=O)Nc1nc2cc(Sc3ccccc3)ccc2[nH]1` [Fenbendazole (Panacur)] reads -8.52%; that for `Cc1cc(C(C)(C)C)c(O)c(C)c1CC1=NCCN1` [Oxymetazoline hydrochloride], -9.52%.
In the case of `Cc1oncc1C(=O)Nc1ccc(C(F)(F)F)cc1` [Leflunomide], the inhibition at 10 µM came to 15.6%.
In the case of `C=CCc1ccc(O)c(-c2ccc(O)c(CC=C)c2)c1` [Honokiol], the inhibition at 10 µM is -2.26%.
Turning to `CCCc1nc2c(C)cc(-c3nc4ccccc4n3C)cc2n1Cc1ccc(-c2ccccc2C(=O)O)cc1` [Telmisartan (Micardis)], the inhibition at 10 µM came out at 0.71%.
Take `CCC1=C(C)CN(C(=O)NCCc2ccc(S(=O)(=O)NC(=O)N[C@H]3CC[C@H](C)CC3)cc2)C1=O` [Glimepiride]: the inhibition at 10 µM was -11.4%.
In the case of `CC(C)[C@@H](C)/C=C/[C@@H](C)[C@H]1CC[C@H]2C3=CC=C4C[C@@H](O)CC[C@]4(C)[C@H]3CC[C@]12C` [Ergosterol], the inhibition at 10 µM is -1.47%.
For `Nc1nc(F)nc2c1ncn2[C@@H]1O[C@H](CO)[C@@H](O)[C@@H]1O` [Fludarabine (Fludara)] the value was 16.2%; for `COc1c2occc2cc2ccc(=O)oc12` [Methoxsalen (Oxsoralen)], -4.76%.

The record behind these values is publication PMC7489219 (Molecular Brain, 2020).
